In patent publication US6709676B2, “Extended release oral dosage composition” (Schering Corporation, priority 1999, dated 2004):

System: allergic bronchospasm and cough
Assay: in vivo studies of allergic bronchospasm and cough

Question: Which “effect on allergic bronchospasm and cough” value does the source give for `Clc1ccc2c(c1)CCc1cccnc1C2=C1CCNCC1` [desloratadine, Desloratadine] here?
Answer: The value was “inhibitory effect”.
